The experiment has as its system L1210 leukemia ip in BDF1 mice, survival T/C. As to the kind of experiment: NCI In Vivo Anticancer Drug Screen. Data for tumor model L1210 Leukemia (intraperitoneal) in B6D2F1 (BDF1) mice. The following applies: endpoint: mean survival time, higher = longer survival. In short, it runs like this:
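Tumor cells were implanted, animals were treated, and survival was followed. The result divides the treated measurement by the vehicle-control measurement.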

[1] abbreviates: dose: 100.0 mg/kg/injection, schedule: Q01DX001 (ip), vehicle: saline.
The mark [2] stands for this setting: dose: 100.0 mg/kg/injection, schedule: Q01DX009 (ip), vehicle: Klucel (hydroxypropylcellulose) (HPC).
[3] abbreviates: dose: 200.0 mg/kg/injection, schedule: Q01DX009 (ip), vehicle: Klucel (hydroxypropylcellulose) (HPC).
The mark [4] stands for this setting: dose: 100.0 mg/kg/injection, schedule: Q04DX003 (ip), vehicle: saline.
[5] abbreviates: dose: 200.0 mg/kg/injection, schedule: Q04DX003 (ip), vehicle: saline.

Where “and” joins values, the source holds several entries; their conditions need not be identical. Equal entries are not always repeated. Inconclusive results and toxic doses are left out.

As to `CCOC1CCC2C(CCC(/C=C/c3ccc(O)c4ncccc34)N2C)C1` (stereo not given), the T/C (dose: 21.0 mg/kg/injection, schedule: Q01DX015 (ip), vehicle: saline) was 113 % of control; the T/C (dose: 36.0 mg/kg/injection, schedule: Q01DX015 (ip), vehicle: saline) was 111 % of control; the T/C (dose: 88.8 mg/kg/injection, schedule: Q01DX001 (ip), vehicle: saline) is 103 % of control and 116 % of control; the T/C under setting [1] is 115 % of control; the T/C (dose: 100.0 mg/kg/injection, schedule: Q01DX015 (ip), vehicle: saline) is 93 % of control; the T/C (dose: 133.4 mg/kg/injection, schedule: Q01DX001 (ip), vehicle: saline) was 108 % of control and 116 % of control and 121 % of control. Moreover, where the note is “dose: 300.0 mg/kg/injection, schedule: Q01DX001 (ip), vehicle: saline”, the T/C is 116 % of control and 121 % of control.

For `O=NN(CCCl)C(=O)Nc1c[nH]c(=O)[nH]c1=O`, the T/C was 200 % of control (dose: 0.75 mg/kg/injection, schedule: Q01DX Z (ip), vehicle: carboxymethylcellulose (CMC)); 177 % of control (dose: 1.0 mg/kg/injection, schedule: Q01DX Z (ip), vehicle: carboxymethylcellulose (CMC)); 185 % of control (dose: 1.5 mg/kg/injection, schedule: Q01DX Z (ip), vehicle: carboxymethylcellulose (CMC)); 192 % of control (dose: 2.0 mg/kg/injection, schedule: Q01DX Z (ip), vehicle: carboxymethylcellulose (CMC)); 210 % of control and 212 % of control (dose: 3.0 mg/kg/injection, schedule: Q01DX Z (ip), vehicle: carboxymethylcellulose (CMC)); 189 % of control (dose: 6.0 mg/kg/injection, schedule: Q01DX Z (ip), vehicle: carboxymethylcellulose (CMC)). Also, the T/C reads like this: (dose: 18.0 mg/kg/injection, schedule: Q01DX Z (ip), vehicle: carboxymethylcellulose (CMC)) 110 % of control; (dose: 20.0 mg/kg/injection, schedule: Q01DX001 (ip), vehicle: carboxymethylcellulose (CMC)) 205 % of control; (dose: 31.0 mg/kg/injection, schedule: Q01DX001 (ip), vehicle: carboxymethylcellulose (CMC)) 155 % of control; (dose: 40.0 mg/kg/injection, schedule: Q01DX001 (ip), vehicle: carboxymethylcellulose (CMC)) 288 % of control; (dose: 50.0 mg/kg/injection, schedule: Q01DX001 (ip), vehicle: carboxymethylcellulose (CMC)) 229 % of control; (dose: 62.0 mg/kg/injection, schedule: Q01DX001 (ip), vehicle: carboxymethylcellulose (CMC)) 231 % of control. Also, the T/C reads like this: (dose: 80.0 mg/kg/injection, schedule: Q01DX001 (ip), vehicle: carboxymethylcellulose (CMC)) 174 % of control; (dose: 125.0 mg/kg/injection, schedule: Q01DX001 (ip), vehicle: carboxymethylcellulose (CMC)) 89 % of control.

As to `O=C(OCn1ncc2ccc([N+](=O)[O-])cc21)c1ccc(Cl)c(Cl)c1`, the T/C (dose: 100.0 mg/kg/injection, schedule: Q01DX001 (ip), vehicle: carboxymethylcellulose (CMC)) was 101 % of control; the T/C (dose: 200.0 mg/kg/injection, schedule: Q01DX001 (ip), vehicle: carboxymethylcellulose (CMC)) was 93 % of control; the T/C (dose: 400.0 mg/kg/injection, schedule: Q01DX001 (ip), vehicle: carboxymethylcellulose (CMC)) is 95 % of control.

In the case of `C=CCNC(=S)Nc1cccc(OC(=O)NC2CCCCC2)c1`, the T/C by setting is: under setting [2], 103 % of control; under setting [3], 105 % of control; (dose: 400.0 mg/kg/injection, schedule: Q01DX009 (ip), vehicle: Klucel (hydroxypropylcellulose) (HPC)) 97 % of control.

For the compound `O=C(NOCc1cc2c(cc1Cl)OCO2)c1ccc(S(=O)(=O)F)cc1`, the T/C (dose: 100.0 mg/kg/injection, schedule: Q04DX003 (ip), vehicle: saline sonified) is 95 % of control.

For the compound `CC1(Br)C(=O)NC(=O)NC1O` (stereo not given), the T/C is, setting by setting: (dose: 50.0 mg/kg/injection, schedule: Q01DX009 (ip), vehicle: Klucel (hydroxypropylcellulose) (HPC)) 98 % of control; under setting [2], 94 % of control; under setting [3], 94 % of control.

As for `NCCOc1ccc([N+](=O)[O-])cc1Cl`, the T/C runs as follows: (dose: 50.0 mg/kg/injection, schedule: Q01DX009 (ip), vehicle: saline) 93 % of control; (dose: 75.0 mg/kg/injection, schedule: Q01DX001 (ip), vehicle: other) 96 % of control; (dose: 100.0 mg/kg/injection, schedule: Q01DX009 (ip), vehicle: saline) 98 % of control; under setting [4], 121 % of control; (dose: 150.0 mg/kg/injection, schedule: Q01DX001 (ip), vehicle: other) 100 % of control; (dose: 200.0 mg/kg/injection, schedule: Q01DX009 (ip), vehicle: saline) 96 % of control. Besides, the T/C reads like this: under setting [5], 103 % of control; (dose: 300.0 mg/kg/injection, schedule: Q01DX001 (ip), vehicle: other) 96 % of control.

As for `CC(=O)n1ncc2ccc([N+](=O)[O-])cc21`, the T/C (dose: 100.0 mg/kg/injection, schedule: Q01DX009 (ip), vehicle: water) was 105 % of control; the T/C (dose: 100.0 mg/kg/injection, schedule: Q04DX003 (ip), vehicle: water) is 93 % of control; the T/C (dose: 200.0 mg/kg/injection, schedule: Q01DX009 (ip), vehicle: water) was 105 % of control; the T/C (dose: 200.0 mg/kg/injection, schedule: Q04DX003 (ip), vehicle: water) was 100 % of control; the T/C (dose: 400.0 mg/kg/injection, schedule: Q01DX009 (ip), vehicle: water) is 107 % of control; the T/C (dose: 400.0 mg/kg/injection, schedule: Q04DX003 (ip), vehicle: water) was 96 % of control.

`C1CCN(CCC2CCNCC2)CC1`: the T/C reads like this: (dose: 25.0 mg/kg/injection, schedule: Q04DX003 (ip), vehicle: saline) 97 % of control; (dose: 50.0 mg/kg/injection, schedule: Q04DX003 (ip), vehicle: saline) 97 % of control; under setting [4], 99 % of control and 100 % of control.

On to `CCC1CCCCN1` (stereo not given), for which the T/C runs as follows: (dose: 10.0 mg/kg/injection, schedule: Q01DX001 (ip), vehicle: saline) 105 % of control; (dose: 10.0 mg/kg/injection, schedule: Q01DX009 (ip), vehicle: saline) 108 % of control and 111 % of control; (dose: 10.0 mg/kg/injection, schedule: Q04DX002 (ip), vehicle: saline) 95 % of control and 106 % of control; (dose: 10.0 mg/kg/injection, schedule: Q04DX003 (ip), vehicle: saline) 103 % of control; (dose: 20.0 mg/kg/injection, schedule: Q01DX001 (ip), vehicle: saline) 120 % of control; (dose: 20.0 mg/kg/injection, schedule: Q01DX009 (ip), vehicle: saline) 104 % of control. Further, the T/C runs as follows: (dose: 20.0 mg/kg/injection, schedule: Q04DX002 (ip), vehicle: saline) 103 % of control; (dose: 20.0 mg/kg/injection, schedule: Q04DX003 (ip), vehicle: saline) 101 % of control; (dose: 40.0 mg/kg/injection, schedule: Q01DX001 (ip), vehicle: saline) 103 % of control; (dose: 40.0 mg/kg/injection, schedule: Q01DX009 (ip), vehicle: saline) 104 % of control; (dose: 40.0 mg/kg/injection, schedule: Q04DX002 (ip), vehicle: saline) 94 % of control and 98 % of control; (dose: 40.0 mg/kg/injection, schedule: Q04DX003 (ip), vehicle: saline) 97 % of control.

On to `CCOC(=O)C(CC(C)C)NP(=O)(CCl)N(CCCl)CCCl` (stereo not given), for which the T/C is, setting by setting: (dose: 25.0 mg/kg/injection, schedule: Q01DX015 (ip), vehicle: other) 102 % of control; (dose: 50.0 mg/kg/injection, schedule: Q01DX015 (ip), vehicle: other) 104 % of control; under setting [1], 104 % of control; (dose: 100.0 mg/kg/injection, schedule: Q01DX015 (ip), vehicle: other) 102 % of control; under setting [4], 95 % of control; (dose: 200.0 mg/kg/injection, schedule: Q01DX001 (ip), vehicle: saline) 104 % of control. Moreover, the T/C (dose: 200.0 mg/kg/injection, schedule: Q01DX015 (ip), vehicle: other) was 102 % of control; the T/C under setting [5] is 95 % of control; the T/C (dose: 400.0 mg/kg/injection, schedule: Q01DX001 (ip), vehicle: saline) is 106 % of control; the T/C (dose: 400.0 mg/kg/injection, schedule: Q04DX003 (ip), vehicle: saline) was 91 % of control.

Values taken from PubChem BioAssay AID248 (DTP/NCI, 2004).
